Publication PMC10699557, “A recombinant approach for stapled peptide discovery yields inhibitors of the RAD51 recombinase” (Chemical Science, 2023)

Test: Two-component Cys-Cys stapling with divinyltriazine (DVT): double thia-Michael addition on recombinant StrepII-GB1-peptide-His8 fusions, stepwise linker addition (pseudo-dilution), DTT quench
Details: the molecule shown is the open-chain precursor, PBS + 200 mM imidazole (2 mM linker stock in DMSO added stepwise), 0.02 mM, scale: 1 = stapled product confirmed by ESI-MS as

Q: For “StrepII-GB1-...GSDP-SCFSTASGKKLNVSCEALQKAVKLFSDIENIS-DPGS...-His8 (free Cys thiols, + DVT)”, which ring closure, product found (51-membered ring) is on record?
A: 1

Q: For “StrepII-GB1-...GSDP-VNSSAFSGFSTASGKKLNVSTEALQKACKLFSDIECIS-DPGS...-His8 (free Cys thiols, + DVT)”, which ring closure, product found (36-membered ring) is on record?
A: 1

Q: Which ring closure, product found (54-membered ring) does the source give for “StrepII-GB1-...GSDP-ACGFSTASGKKLNVSCEALQKAVKLFSDIENIS-DPGS...-His8 (free Cys thiols, + DVT)” here?
A: 1

Q: Which ring closure, product found (33-membered ring) does the source give for “StrepII-GB1-...GSDP-VNSSAFSGFSTASGKKLNVSCEALQKACKLFSDIENIS-DPGS...-His8 (free Cys thiols, + DVT)” here?
A: 1

Q: With “StrepII-GB1-...GSDP-SSACSGFSTASGKKLNVSTEACQKAVKLFSDIENIS-DPGS...-His8 (free Cys thiols, + DVT)” as the substance, how does the ring closure, product found (66-membered ring) read?
A: 1
